According to patent US7825155B2, “Oxindole derivative as feeding control agent” (priority 2005, dated 2010):

Key:
[1] = biological target: T1, human GHSR (growth hormone secretagogue receptor) (Homo sapiens, UniProt Q92847); assay type: cell-based; conditions: 1 μM compound, 10 nM Ghrelin, human GHSR CHO-K1 cells
T1 construct: host or cells: CHO-K1
Experimental: Assessment of Ghrelin Antagonism Using Human GHSR Stably Expressing Cells
By using cells wherein human GHSR (growth hormone secretagogue receptor) is stably expressed, the effects of compounds of the Examples on elevation of cellular calcium ion concentrations were evaluated when endogenous ligand Ghrelin was added to the cells.
Human GHSR stably expressing CHO-K1 cells (EUROSCREEN) were seeded on 96-well assay plate (Black plate, Clear Bottom (Corning)) in 2×10^4 cells/100 μl/well, and incubated in cell culture device for 1 day at 37° C. under 5% CO2. […]
Ghrelin was combined with an equal amount of the test compound which was prepared with Hanks/Hepes (pH7.4) in a concentration of 10-times of the final concentration, and the mixture was added to the cells in 50 μl/well. Immediately after that, excitation wavelength in 488 nm was measured by FLIPR (Molecular Devices) 80 times at 1 second interval. Ghrelin antagonistic ratio (%) of the compound in the concentration of 1 μM was calculated according to the following equation wherein the values of fluorescence intensity means those obtained by deducting the minimum value from the maximum value. […]
A: Fluorescence intensity in case of adding 1 μM of the compound and 10 nM of Ghrelin
B: Fluorescence intensity in case of no addition of the compound and Ghrelin
C: Fluorescence intensity in case of adding only 10 nM of Ghrelin

[2] = test system: Ghrelin-induced feeding increasing mice; test: Assessment of feeding in mice (Ghrelin-induced feeding increasing mice); assay type: in vivo; conditions: ICR mice, compound i.p. 12.5, 25, 50 mg/kg, Ghrelin 250 nmol/kg i.v., 1, 2 and 4 hours
Experimental: Assessment of Feeding in Mice
The effects of compounds of the Examples on the feeding amount in intraperitoneally administering the compound were evaluated using Ghrelin-induced feeding increasing mice.
ICR mice (male, 7-week-old, Charles River Laboratories) were fed in 5 mice in each cage. Food (CE-2, Oriental Yeast Co., Ltd.) and sterile tap water were intaken freely.
ICR mice were intraperitoneally administered the compound (12.5, 25, 50 mg/kg) miscible in 10% polyethylene glycol #400, and immediately after that, intravenously administered Ghrelin (250 nmol/kg) dissolved in saline.
The food weight was measured 4 times in total: just before the administration of Ghrelin, and 1, 2 and 4 hours after the administration. The inhibition ratio was calculated according to the following equation and the integrated feeding amount until each measuring time point. Each treatment group consisted of 10 mice.
Inhibition ratio (%)=(B−C)/(B−A)×100
A: Feeding amount (g) in group administered with only vehicle
B: Feeding amount (g) in group administered with only Ghrelin
C: Feeding amount (g) in group administered with Ghrelin and test compound

T1 sequence (Q92847 whole entry): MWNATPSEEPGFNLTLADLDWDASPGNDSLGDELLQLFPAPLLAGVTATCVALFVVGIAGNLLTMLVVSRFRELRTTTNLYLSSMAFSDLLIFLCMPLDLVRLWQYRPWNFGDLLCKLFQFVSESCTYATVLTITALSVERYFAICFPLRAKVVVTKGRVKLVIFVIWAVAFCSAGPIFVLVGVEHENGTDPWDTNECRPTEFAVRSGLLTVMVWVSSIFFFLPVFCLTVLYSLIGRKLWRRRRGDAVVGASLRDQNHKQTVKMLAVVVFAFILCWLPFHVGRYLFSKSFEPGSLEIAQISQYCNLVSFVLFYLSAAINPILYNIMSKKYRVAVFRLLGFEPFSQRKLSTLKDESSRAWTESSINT

| Compound | Ghrelin antagonistic ratio [1] [%] | Inhibition ratio of feeding amount, maximum [2] [%] |
| --- | --- | --- |
| CCN(CC)[C@H]1C[C@H](CN2C(=O)C(O)(c3ccc(Cl)cc3Cl)c3c2cc(-c2ncco2)cc3C(F)(F)F)C1 (stereo partly drawn) [Example 14, 3-(2,4-dichlorophenyl)-1-[trans-3-(diethylamino)-cyclobutylmethyl]-4-trifluoromethyl-3-hydroxy-6-(2-oxazolyl)-1,3-dihydro-2H-indol-2-one] | 74 |  |
| CCN(CC)[C@H]1C[C@H](CN2C(=O)C(O)(c3ccc(Cl)cc3Cl)c3c2cc(C(N)=O)cc3C(F)(F)F)C1.Cl (stereo partly drawn) [Example 1, 3-(2,4-dichlorophenyl)-1-[trans-3-(diethylamino)-cyclobutylmethyl]-4-trifluoromethyl-3-hydroxy-2-oxoindoline-6-carboxamide Hydrochloride] | 82 | 110 |
